Results on three molecules are retold here after article PMC10257182, “Discovery of senolytics using machine learning” (Nature Communications, 2023).

In this assay the test system is non-senescent control IMR90 ER:RAS cells. Put plainly: Nuclei count (Hoechst, high content imaging) senolytic assay, OIS model, non-senescent control cells. The class given is cell-based, human. Particulars: Homo sapiens; for viability at 4.677 µM: log (dose) [M] -5.33, 72 h; for viability at 4.68 µM: log (dose) [M] -5.33. The procedure, abridged: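 We compared total nuclei counts between senescent and non-senescent IMR90 ER:RAS cells after 72 h compound exposure (10 nM–10 μM). Hoechst staining followed fixation and permeabilisation; ouabain served as senolytic positive control.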

The mark [1] stands for this setting: IMR-90, 72 h, Control, log (dose) [M] -5, 72 h, mean n=3 (Fig 3C), read-out: Mean % Cell Survival.
Setting [2] is: IMR-90, 72 h, Control, mean n=3 (Fig 3C), read-out: Mean % Cell Survival.
[3] abbreviates: IMR-90, 72 h, Control, log (dose) [M] -5.66, 72 h, mean n=3 (Fig 3C), read-out: Mean % Cell Survival.
The mark [4] stands for this setting: IMR-90, 72 h, Control, log (dose) [M] -6, 72 h, mean n=3 (Fig 3C), read-out: Mean % Cell Survival.
[5] abbreviates: IMR-90, 72 h, Control, log (dose) [M] -6.33, 72 h, mean n=3 (Fig 3C), read-out: Mean % Cell Survival.
The mark [6] stands for this setting: IMR-90, 72 h, Control, log (dose) [M] -6.66, 72 h, mean n=3 (Fig 3C), read-out: Mean % Cell Survival.
Where [7] appears, read: IMR-90, 72 h, Control, log (dose) [M] -7, 72 h, mean n=3 (Fig 3C), read-out: Mean % Cell Survival.
The mark [8] stands for this setting: IMR-90, 72 h, Control, log (dose) [M] -7.33, 72 h, mean n=3 (Fig 3C), read-out: Mean % Cell Survival.
[9] abbreviates: IMR-90, 72 h, Control, log (dose) [M] -7.66, 72 h, mean n=3 (Fig 3C), read-out: Mean % Cell Survival.
Where [10] appears, read: IMR-90, 72 h, Control, log (dose) [M] -8, 72 h, mean n=3 (Fig 3C), read-out: Mean % Cell Survival.
Where [11] appears, read: IMR-90, Control cells, log (dose) [M] -5.66, individual replicates, SUP FIG 4C, read-out: % Cell Survival.
Setting [12] is: IMR-90, Control cells, log (dose) [M] -7.33, individual replicates, SUP FIG 4C, read-out: % Cell Survival.
Setting [13] is: IMR-90, Control cells, log (dose) [M] -7.66, individual replicates, SUP FIG 4C, read-out: % Cell Survival.
[14] abbreviates: IMR-90, Control cells, log (dose) [M] -8, individual replicates, SUP FIG 4C, read-out: % Cell Survival.
Setting [15] is: IMR-90, Control, read-out: % Cell Survival.
[16] abbreviates: IMR-90, Control, log (dose) [M] -5.66, read-out: % Cell Survival.
[17] abbreviates: IMR-90, Control, log (dose) [M] -6.66, read-out: % Cell Survival.
Setting [18] is: IMR-90, Control, log (dose) [M] -7, read-out: % Cell Survival.
[19] abbreviates: IMR-90, Control, log (dose) [M] -7.33, read-out: % Cell Survival.
Where [20] appears, read: IMR-90, Control, log (dose) [M] -7.66, read-out: % Cell Survival.
Setting [21] is: IMR-90, Control, log (dose) [M] -8, read-out: % Cell Survival.
The mark [22] stands for this setting: IMR-90, Control, log (dose) [M] -6, read-out: % Cell Survival.

Where two headings read alike, the source gives them in different places.

On to `O=c1c(O)c(-c2ccc(O)cc2)oc2c(O)c(O)cc(O)c12` [Herbacetin, herbacetin], for which the viability at 10 µM runs as follows: under setting [1], 100%; (IMR-90, Control, log (dose) [M] -5, read-out: % Cell Survival) 97.9%. The viability at 4.677 µM under setting [2] came out at 108%. The viability at 2.188 µM runs as follows: under setting [3], 97.9%; under setting [11], 94.1%. The viability at 1 µM under setting [4] was found to be 74.4%. Moreover, the viability at 0.4677 µM by setting is: under setting [5], 94.9%; (IMR-90, Control cells, log (dose) [M] -6.33, individual replicates, SUP FIG 4C, read-out: % Cell Survival) 105%. For the same molecule, the viability at 0.2188 µM under setting [6] was 93.5%. The viability at 0.1 µM was determined as 94.6% under setting [7] and 91.7% under setting [18]. For the same molecule, the viability at 0.04677 µM worked out at 102% under setting [8], 100% under setting [12] and 92.8% under setting [19]. Further, the viability at 0.02188 µM reads like this: under setting [9], 109%; under setting [13], 120%. Moreover, the viability at 0.01 µM by setting is: under setting [10], 107%; under setting [14], 113%; under setting [21], 100%. Besides, under setting [15], the viability at 4.68 µM was 96.8%. In addition, under setting [16], the viability at 2.19 µM was found to be 91.6%. The viability at 0.219 µM under setting [17] is 93.8%. Besides, under setting [20], the viability at 0.0219 µM is 98.3%.
Consider `Cc1cc2c(C(C)C)c(O)c(O)c(C=O)c2c(O)c1-c1c(C)cc2c(C(C)C)c(O)c(O)c(C=O)c2c1O` [Gossypol, gossypol], for which the viability at 10 µM under setting [1] was found to be 86.7%. Further, the viability at 4.677 µM under setting [2] amounted to 131%. Besides, under setting [3], the viability at 2.188 µM was found to be 118%. Besides, the viability at 1 µM is 120% under setting [4] and 101% under setting [22]. In addition, under setting [5], the viability at 0.4677 µM was found to be 135%. Besides, the viability at 0.2188 µM under setting [6] is 146%. Besides, the viability at 0.1 µM is, setting by setting: under setting [7], 126%; under setting [18], 94.9%. For the same molecule, the viability at 0.04677 µM by setting is: under setting [8], 143%; under setting [19], 101%. In addition, the viability at 0.02188 µM under setting [9] was found to be 121%. The viability at 0.01 µM stood at 109% under setting [10] and 104% under setting [21]. Also, the viability at 4.68 µM under setting [15] was found to be 113%. Also, under setting [16], the viability at 2.19 µM amounted to 99.8%. Further, the viability at 0.219 µM under setting [17] amounted to 94.1%.
Take `Cc1c(-c2c(F)cc(C(N)=O)c3[nH]c4c(c23)CC[C@H](C(C)(C)O)C4)cccc1-n1c(=O)c2cccc(F)c2n(C)c1=O` [BMS 986142]: the viability at 10 µM under setting [1] is 97.1% and the viability at 10 µM (IMR-90, Control cells, log (dose) [M] -5, individual replicates, SUP FIG 4C, read-out: % Cell Survival) was determined as 104%. Further, the viability at 4.677 µM under setting [2] was 136%. Moreover, the viability at 2.188 µM came to 117% under setting [3] and 125% under setting [11]. In addition, the viability at 1 µM worked out at 115% under setting [4]; 119% (IMR-90, Control cells, log (dose) [M] -6, individual replicates, SUP FIG 4C, read-out: % Cell Survival); 97.9% under setting [22]. For the same molecule, under setting [5], the viability at 0.4677 µM is 97.6%. Besides, the viability at 0.2188 µM under setting [6] turned out to be 107% and the viability at 0.2188 µM (IMR-90, Control cells, log (dose) [M] -6.66, individual replicates, SUP FIG 4C, read-out: % Cell Survival) came to 108%. Also, the viability at 0.1 µM was determined as 108% under setting [7]; 107% (IMR-90, Control cells, log (dose) [M] -7, individual replicates, SUP FIG 4C, read-out: % Cell Survival); 92.2% under setting [18]. The viability at 0.04677 µM reads like this: under setting [8], 105%; under setting [12], 108%; under setting [19], 101%. Further, the viability at 0.02188 µM is 114% under setting [9] and 116% under setting [13]. Also, the viability at 0.01 µM by setting is: under setting [10], 104%; under setting [14], 104%; under setting [21], 95.3%. Also, under setting [15], the viability at 4.68 µM stood at 99.7%. Also, the viability at 2.19 µM under setting [16] worked out at 88.8%. Also, under “IMR-90, Control, log (dose) [M] -6.33, read-out: % Cell Survival”, the viability at 0.468 µM was 91.9%. Under setting [17], the viability at 0.219 µM was found to be 111%. Under setting [20], the viability at 0.0219 µM is 94.6%.
